Results published in patent publication US7276527B2, “5-pyridyl-1,3-azole compounds, process for producing the same and use thereof” (Takeda Pharmaceutical Company Limited, priority 1999, dated 2007).

Row | SMILES | melting point [°C]
1 | CSc1ccc(-c2nc(-c3cccc(C)c3)c(-c3ccnc(NC(=O)Cc4ccccc4)c3)s2)cc1 [Example Compound 15-6, N-[4-[4-(3-methylphenyl)-2-(4-methylthiophenyl)-1,3-thiazol-5-yl]-2-pyridyl]phenylacetamide] | 205 to 206
2 | Cc1cccc(-c2nc(-c3ccc(F)cc3)sc2-c2ccnc(NCCc3ccccc3)c2)c1 [Example Compound 19-12, N-[4-[2-(4-fluorophenyl)-4-(3-methylphenyl)-1,3-thiazol-5-yl]-2-pyridyl]-N-(2-phenylethyl)amine] | 97 to 98
3 | CSc1ccc(-c2nc(-c3cccc(C)c3)c(-c3ccnc(NCc4ccccc4)c3)s2)cc1 [Example Compound 19-17, N-benzyl-N-[4-[4-(3-methylphenyl)-2-(4-methylthiophenyl)-1,3-thiazol-5-yl]-2-pyridyl]amine] | 134 to 136
4 | CSc1ccc(-c2nc(-c3cccc(C)c3)c(-c3ccnc(NC(=O)CCc4ccccc4)c3)s2)cc1 [Example Compound 16-16, N-[4-[4-(3-methylphenyl)-2-(4-methylthiophenyl)-1,3-thiazol-5-yl]-2-pyridyl]-3-phenylpropionamide] | 174 to 175
5 | CC(=O)Nc1nc(-c2cc(C)cc(C)c2)c(-c2ccnc(NCc3ccccc3)c2)s1 [Example Compound 10, N-[5-(2-benzylamino-4-pyridyl)-4-(3,5-dimethylphenyl)-1,3-thiazol-2-yl]acetamide] | 217 to 219
6 | CCc1nc(-c2cccc(C)c2)c(-c2ccnc(NC(=O)CCCCc3ccccc3)c2)s1 [Example Compound 16-6, N-[4-[2-ethyl-4-(3-methylphenyl)-1,3-thiazol-5-yl]-2-pyridyl]-5-phenylvaleramide] | 86 to 87
7 | CCCc1nc(-c2cccc(C)c2)c(-c2ccnc(NC(=O)CCc3ccccc3)c2)s1 [Example Compound 16-8, N-[4-[4-(3-methylphenyl)-2-propyl-1,3-thiazol-5-yl]-2-pyridyl]-3-phenylpropionamide] | 103 to 104
8 | Cc1cccc(-c2nc(-c3ccc(F)cc3)sc2-c2ccnc(NC(=O)c3ccccc3)c2)c1 [Example Compound 16-11, N-[4-[2-(4-fluorophenyl)-4-(3-methylphenyl)-1,3-thiazol-5-yl]-2-pyridyl]benzamide] | 126 to 128
9 | Cc1cccc(-c2nc(-c3ccc(F)cc3)sc2-c2ccnc(NCCCc3ccccc3)c2)c1 [Example Compound 19-13, N-[4-[2-(4-fluorophenyl)-4-(3-methylphenyl)-1,3-thiazol-5-yl]-2-pyridyl]-N-(3-phenylpropyl)amine] | 110 to 112
10 | Cc1cccc(-c2nc(-c3ccccc3Cl)sc2-c2ccnc(NCc3ccccc3)c2)c1 [Example Compound 19-14, N-benzyl-N-[4-[2-(2-chlorophenyl)-4-(3-methylphenyl)-1,3-thiazol-5-yl]-2-pyridyl]amine] | 84 to 86
11 | CSc1ccc(-c2nc(-c3cccc(C)c3)c(-c3ccnc(NC(=O)c4ccccc4)c3)s2)cc1 [Example Compound 16-15, N-[4-[4-(3-methylphenyl)-2-(4-methylthiophenyl)-1,3-thiazol-5-yl]-2-pyridyl]benzamide] | 180 to 182
12 | COc1ccc(-c2nc(C)sc2-c2ccnc(NCc3ccccc3)c2)cc1 [Example Compound 19-1, N-benzyl-N-[4-[4-(4-methoxyphenyl)-2-methyl-1,3-thiazol-5-yl]-2-pyridyl]amine] | 132 to 133
13 | CNc1nc(-c2ccc(OC)cc2)c(-c2ccnc(NC(=O)c3ccccc3)c2)s1 [Example Compound 11, N-[4-[4-(4-methoxyphenyl)-2-methylamino-1,3-thiazol-5-yl]-2-pyridyl]benzamide] | 237 to 241
14 | CCc1nc(-c2cccc(C)c2)c(-c2ccnc(NC(=O)CCCc3ccccc3)c2)s1 [Example Compound 16-5, N-[4-[2-ethyl-4-(3-methylphenyl)-1,3-thiazol-5-yl]-2-pyridyl]-4-phenylbutyramide] | 92 to 93
15 | Cc1cccc(-c2nc(-c3ccccc3Cl)sc2-c2ccnc(NC(=O)CCc3ccccc3)c2)c1 [Example Compound 16-14, N-[4-[2-(2-chlorophenyl)-4-(3-methylphenyl)-1,3-thiazol-5-yl]-2-pyridyl]-3-phenylpropionamide] | 156 to 158
16 | CCc1nc(-c2cccc(C)c2)c(-c2ccnc(NC(=O)CCc3ccc(F)cc3)c2)s1 [Example Compound 16-4, N-[4-[2-ethyl-4-(3-methylphenyl)-1,3-thiazol-5-yl]-2-pyridyl]-3-(4-fluorophenyl)propionamide] | 116 to 117
17 | Cc1cccc(-c2nc(-c3ccccc3Cl)sc2-c2ccnc(NCCCc3ccccc3)c2)c1 [Example Compound 19-16, N-[4-[2-(2-chlorophenyl)-4-(3-methylphenyl)-1,3-thiazol-5-yl]-2-pyridyl]-N-(3-phenylpropyl)amine] | 101 to 102
18 | CSc1ccc(-c2nc(-c3cccc(C)c3)c(-c3ccnc(NC(=O)c4cccs4)c3)s2)cc1 [Example Compound 16-17, N-[4-[4-(3-methylphenyl)-2-(4-methylthiophenyl)-1,3-thiazol-5-yl]-2-pyridyl]-2-thiophenecarboxamide] | 145 to 147
19 | Cc1cccc(-c2nc(-c3ccccc3Cl)sc2-c2ccnc(NCCc3ccccc3)c2)c1 [Example Compound 19-15, N-[4-[2-(2-chlorophenyl)-4-(3-methylphenyl)-1,3-thiazol-5-yl]-2-pyridyl]-N-(2-phenylethyl)amine] | 113 to 114

Second part, the compound after the results:

Row | melting point [°C] | SMILES
20 | 107 to 109 | Cc1cccc(-c2nc(-c3ccc(S(C)(=O)=O)cc3)sc2-c2ccnc(NCc3cccs3)c2)c1 [Example Compound 25-5, N-[4-[4-(3-methylphenyl)-2-(4-methylsulfonylphenyl)-1,3-thiazol-5-yl]-2-pyridyl]-N-(2-thienylmethyl)amine]
21 | 158 to 159 | COc1ccccc1CNc1cc(-c2sc(N)nc2-c2cccc(C)c2)ccn1 [Example Compound 23-3, N-[4-[2-amino-4-(3-methylphenyl)-1,3-thiazol-5-yl]-2-pyridyl]-N-(2-methoxybenzyl)amine]
22 | 106 to 107 | CSc1ccc(-c2nc(-c3cccc(C)c3)c(-c3ccnc(NCCCc4ccccc4)c3)s2)cc1 [Example Compound 19-19, N-[4-[4-(3-methylphenyl)-2-(4-methylthiophenyl)-1,3-thiazol-5-yl]-2-pyridyl]-N-(3-phenylpropyl)amine]
23 | 155 to 158 | Cc1cccc(-c2nc(-c3ccc(S(C)(=O)=O)cc3)sc2-c2ccnc(NCc3ccc(F)cc3)c2)c1 [Example Compound 25-2, N-(4-fluorobenzyl)-N-[4-[4-(3-methylphenyl)-2-(4-methylsulfonylphenyl)-1,3-thiazol-5-yl]-2-pyridyl]amine]
24 | 94 to 98 | Cc1cccc(-c2nc(N)sc2-c2ccnc(N[C@H](C)c3ccccc3)c2)c1 [Example Compound 23-6, (R)-N-[4-[2-amino-4-(3-methylphenyl)-1,3-thiazol-5-yl]-2-pyridyl]-N-(1-phenylethyl)amine]
25 | 165 to 166 | Cc1cccc(-c2nc(-c3ccc(S(C)(=O)=O)cc3)sc2-c2ccnc(N(C)Cc3ccccc3)c2)c1 [Example Compound 25-3, N-benzyl-N-methyl-N-[4-[4-(3-methylphenyl)-2-(4-methylsulfonylphenyl)-1,3-thiazol-5-yl]-2-pyridyl]amine]
26 | 152 to 154 | COc1cccc(CNc2cc(-c3sc(N)nc3-c3cccc(C)c3)ccn2)c1 [Example Compound 23-2, N-[4-[2-amino-4-(3-methylphenyl)-1,3-thiazol-5-yl]-2-pyridyl]-N-(3-methoxybenzyl)amine]
27 | 183 to 184 | COc1ccc(CNc2cc(-c3sc(N)nc3-c3cccc(C)c3)ccn2)cc1 [Example Compound 23-1, N-[4-[2-amino-4-(3-methylphenyl)-1,3-thiazol-5-yl]-2-pyridyl]-N-(4-methoxybenzyl)amine]
28 | 182 to 183 | Cc1cccc(-c2nc(N)sc2-c2ccnc(NCc3ccc(Cl)cc3)c2)c1 [Example Compound 23-4, N-[4-[2-amino-4-(3-methylphenyl)-1,3-thiazol-5-yl]-2-pyridyl]-N-(4-chlorobenzyl)amine]
29 | 180 to 181 | Cc1cccc(-c2nc(N)sc2-c2ccnc(NCc3cccc(Cl)c3)c2)c1 [Example Compound 23-5, N-[4-[2-amino-4-(3-methylphenyl)-1,3-thiazol-5-yl]-2-pyridyl]-N-(3-chlorobenzyl)amine]
30 | 236 to 237 | Cc1cccc(-c2nc(-c3ccc(S(C)(=O)=O)cc3)sc2-c2ccnc(NC(=O)CCc3ccccc3)c2)c1 [Example Compound 21-2, N-[4-[4-(3-methylphenyl)-2-(4-methylsulfonylphenyl)-1,3-thiazol-5-yl]-2-pyridyl]-3-phenylpropionamide]
31 | 167 to 168 | Cc1cccc(-c2nc(-c3ccc(S(C)(=O)=O)cc3)sc2-c2ccnc(NCCCc3ccccc3)c2)c1 [Example Compound 21-6, N-[4-[4-(3-methylphenyl)-2-(4-methylsulfonylphenyl)-1,3-thiazol-5-yl]-2-pyridyl]-N-(3-phenylpropyl) amine]
32 | 231 to 233 | Cc1cccc(-c2nc(-c3ccc(S(C)(=O)=O)cc3)sc2-c2ccnc(NC(=O)c3ccc4ccccc4c3)c2)c1 [Example Compound 21-4, N-[4-[4-(3-methylphenyl)-2-(4-methylsulfonylphenyl)-1,3-thiazol-5-yl]-2-pyridyl]-2-naphthamide]
33 | 116 to 117 | Cc1cccc(-c2nc(-c3ccc(S(C)(=O)=O)cc3)sc2-c2ccnc(N(C)CCc3ccccc3)c2)c1 [Example Compound 25-4, N-methyl-N-[4-[4-(3-methylphenyl)-2-(4-methylsulfonylphenyl)-1,3-thiazol-5-yl]-2-pyridyl]-N-(2-phenylethyl)amine]
34 | 138 to 140 | Cc1cccc(-c2nc(N)sc2-c2ccnc(N(C)Cc3ccccc3)c2)c1 [Example Compound 23-8, N-[4-[2-amino-4-(3-methylphenyl)-1,3-thiazol-5-yl]-2-pyridyl]-N-benzyl-N-methylamine]
